From patent US9006284B2, “Combination therapy for treating proliferative diseases” (Bionomics Limited, priority 2009, dated 2015)

Legend:
[1] = tested on: tumor endothelial cells (activated) and normal endothelial cells (quiescent); experiment: Selectivity between activated and quiescent endothelial cells; type: cell-based
Protocol: (§1) Proliferation Assay—quiescent endothelium: Human umbilical vein endothelial cells (CC-2519, Clonetics) were plated at 15000 cells/well in EBM2 (CC-3156, Clonetics)+0.5% FBS (CC-4101A, Clonetics)+GA-1000 (CC-4381A, Clonetics) in a 96 well plate in triplicate. Cells were cultured overnight at 37° C. 5% CO2. Medium was subsequently replaced with fresh medium including the compound or negative control. Cells were cultured for a period of 48 hrs. An MTT assay was performed to measure changes in cell numbers. Briefly, 20 μl of MTT reagent was added to cells containing 100 μl of EBM2+0.5% FBS and incubated at 37° C. for 2 hours. Absorbance was measured at 492 nm.
as §1, with “Assay—activated” for “Assay—quiescent”, “2500” for “15000”, “EGM2 (CC-3162,” for “EBM2 (CC-3156, Clonetics)+0.5% FBS (CC-4101A, Clonetics)+GA-1000 (CC-4381A,”, “EGM2” for “EBM2+0.5% FBS”

[2] = tested on: MDA-MB-231 solid orthotopic tumors; experiment: Tumor growth inhibition, MDA-MB-231 orthotopic tumors; type: in vivo, Balb/c nu/nu mice; conditions: 40 mg/kg i.v., two cycles, up to 72 days; vs vehicle p<0.001 from day 4 to Day 70
Description: Animals were i.v. dosed with a total of two cycles of Example 2 treatment. Each cycle was dosing on […] followed by a three week no-dosing period. Tumor growth represented as a ratio to initial tumor volume is shown over a total of 72-days.
Tumor growth as well as animal health were monitored for up to 72 days post-day 1 of treatment. […] Significant differences in tumor growth between Example 2 treated (n=64) and vehicle treated (n=20) animals were observed as early as day 4 (p<0.001; unpaired t-test; Prism® analysis) through to Day 70.

Caki-1 xenograft tumors = experiment: Immunohistochemistry analysis of Caki-1 renal xenografts; type: in vivo, BALB/c nu/nu mice; conditions: single i.v. 32 mg/kg
Description: These effects result in some reduction of tumor growth in animal models. Tumor recovery from the vascular damage caused by VDA action occurs within 48 hrs post-treatment. Furthermore, vascular disruption spares the outer cellular rim of a tumor mass that appears to be supported by normal vessels that surround the tumor capsule and remain unaffected by VDA action. It is reasonable to hypothesise that his viable rim subsequently supports tumor revascularisation and recovery from the action of the VDA agent. We hypothesised that the recovery of the tumors from the effects of the VDA action is driven by molecular pathways that support cancer cell survival and induction of angiogenesis. We undertook a number of histological analyses to assess the damage caused by Example 2 on the integrity of components of the tumor microenvironment and obtain information of upregulation of proteins that are likely to be involved in tumor recovery. Our analyses included evaluation of the expression of VEGF, phosphorylated mTOR, Hypoxia inducible factor-1-alpha (Hif-1α), and Hypoxia inducible factor-2-alpha (Hif-2α), the level of apoptosis, integrity of endothelial cells and the basement membrane protein laminin.
Female BALB/c nu/nu mice at 6 to 8 weeks were injected s.c. with the human cancer cell line Caki-1 representing renal cancer. Cells were resuspended in Dulbecco's PBS (Sigma-Aldrich) and 5×10^6 cells were injected s.c. Tumors were grown to an average size of 700 mm^3 prior to treatment. Example 2 treatment consisted of a single i.v. injection at dose level of 32 mg/kg. Saline treatment was included as a vehicle control. Animals were euthanized and tumors were excised for histologic examination 24 hours post dosing. Cryosections of tumors were prepared and probed with phosphorylated mTOR (ser 2448), Hif-1α, Hif-2α and CD31 specific antibodies. Antibody staining was visualized using 3,3′-Diaminobenzidine (brown staining) and sections were conterstained with Myers hematoxylin.

[3] = tested on: Human umbilical vein endothelial cells (HUVECs), tumour type activated endothelial cells; experiment: Proliferation assay, activated endothelium (Tum); type: cell-based; conditions: HUVEC, given as ranges
Protocol: as §1, with “Assay—activated” for “Assay—quiescent”, “2500” for “15000”, “EGM2 (CC-3162,” for “EBM2 (CC-3156, Clonetics)+0.5% FBS (CC-4101A, Clonetics)+GA-1000 (CC-4381A,”, “EGM2” for “EBM2+0.5% FBS”

MCF-7 = experiment: Growth inhibition (SRB or cell counting), MCF-7; type: cell-based; conditions: Homo sapiens, MCF7, concentration required to inhibit net cell growth by 50%, read-out: Cancer cell line: IC50
[4] = tested on: Human umbilical vein endothelial cells (HUVECs), normal quiescent type endothelial cells; experiment: Proliferation assay, quiescent endothelium (Norm); type: cell-based; conditions: HUVEC, given as ranges
Protocol: as §1

MDA-MB-231 = experiment: Growth inhibition (SRB or cell counting), MDA-MB-231; type: cell-based; conditions: Homo sapiens; MDA-MB-231 (footnote b); given as ranges; read-out: Cancer cell line: IC50
[5] = around the viable rim region, 24 hours

Compound	IC50 [3] [nM]	IC50 [4] [nM]	further results
COc1ccc(/C=C\c2cc(OC)c(OC)c(OC)c2)cc1O [Combretastatin A4]			Selectivity activated vs quiescent endothelial cells [1]: equally potent against quiescent and activated endothelial cells
COc1cc(C(=O)c2c(C)oc3c(OP(=O)([O-])[O-])c(OC)ccc23)cc(OC)c1OC.[Na+].[Na+] [Example 2, Disodium 6-methoxy-2-methyl-3-(3,4,5-trimethoxybenzoyl)benzofuran-7-yl phosphate]			Tumor growth (ratio to initial tumor volume) [2]: tumor growth inhibition; Number of apoptotic cells within the tumor (Caki-1 xenograft tumors; 24-30 hrs after treatment): significant increase in the number of apoptotic cells; Staining of laminin (basement membrane integrity) (Caki-1 xenograft tumors; 24-30 hrs after treatment): considerable reduction in the staining; Staining with anti-human VEGF antibody (Caki-1 xenograft tumors; 24-30 hrs after treatment): dramatic increase in staining; Staining with endothelial cell marker CD31 (Caki-1 xenograft tumors; 24-30 hrs after treatment): decrease in staining; Expression of Hif-1α (Caki-1 xenograft tumors; [5]): Increased expression; Expression of Hif-2α (Caki-1 xenograft tumors; [5]): Increased expression; Expression of phosphorylated mTOR (ser 2448) (Caki-1 xenograft tumors; [5]): Increased expression
COc1ccc(/C=C\c2cc(OC)c(OC)c(OC)c2)cc1OP(=O)(O)O [Example 4]	1 to 10	1 to 10	IC50 (MCF-7): 5 nM
COc1ccc2c(C(=O)c3cc(OC)c(OC)c(OC)c3)coc2c1 [Example 5]	10 to 100	10 to 100	IC50 (MCF-7): 55 nM
CNc1oc2c(O)c(OC)ccc2c1C(=O)c1cc(OC)c(OC)c(OC)c1 [Example 10]	1 to 10	0.1 to 1	IC50 (MCF-7): 3.5 nM
C#Cc1oc2c(O)c(OC)ccc2c1C(=O)c1cc(OC)c(OC)c(OC)c1 [Example 12]	1 to 10	1 to 10	IC50 (MCF-7): 3.3 nM
COc1cc(C(=O)c2coc3c(N)c(OC)ccc23)cc(OC)c1OC [Example 19]	1 to 10	1 to 10	IC50 (MDA-MB-231): 1 to 10 nM
COc1cc(C(=O)c2c(C#N)oc3c(O)c(OC)ccc23)cc(OC)c1OC [Example 23]	1 to 10	1 to 10	IC50 (MDA-MB-231): 0.1 to 1 nM
COc1cc(C(=O)c2c(N)oc3c(O)c(OC)ccc23)cc(OC)c1OC [Example 25]	1 to 10	1 to 10	IC50 (MDA-MB-231): 0.1 to 1 nM
CCCCc1oc2c(O)c(OC)ccc2c1C(=O)c1cc(OC)c(OC)c(OC)c1 [Example 32]	1 to 10	1 to 10	
CCc1oc2c(O)c(OC)ccc2c1C(=O)c1cc(OC)c(OC)c(OC)c1 [Example 33]	0.1 to 1	0.1 to 1	
COc1cc(C(=O)c2c(CN(C)C)oc3c(O)c(OC)ccc23)cc(OC)c1OC [Example 34]	1 to 10	1 to 10	
COc1cc(C(=O)c2c(C)[nH]c3c(O)c(OC)ccc23)cc(OC)c1OC [Example 39]	0.01 to 0.1	0.1 to 1	
COc1ccc2c(C(=O)c3cc(OC)c(OC)c(OC)c3)c(C)sc2c1 [Example 41]	1 to 10	1 to 10	
COc1cc(C(=O)c2c(C)sc3c(O)c(OC)ccc23)cc(OC)c1OC [Example 42]	0.1 to 1	1 to 10	
COc1cc(C(=O)c2c(NCCS(N)(=O)=O)oc3c(O)c(OC)ccc23)cc(OC)c1OC [Example 45]	1 to 10	1 to 10	
